Assay results as given in paper PMC9056950, “Synthesis and biochemical evaluation of cephalosporin analogues equipped with chemical tethers” (RSC Advances, 2020).
Converted amounts (≈) assume the structure as drawn.

Key:
[1] = target: T1, PBP3 (Escherichia coli, UniProt P0AD68); test: biochemical; set-up: Thermal shift assay, Protein Thermal Shift dye, 3 uM E. coli PBP3, change in melting temperature; conditions: read-out: Average DTm/°C
T1 construct: gene ftsI
T1 sequence (P0AD68 44-588): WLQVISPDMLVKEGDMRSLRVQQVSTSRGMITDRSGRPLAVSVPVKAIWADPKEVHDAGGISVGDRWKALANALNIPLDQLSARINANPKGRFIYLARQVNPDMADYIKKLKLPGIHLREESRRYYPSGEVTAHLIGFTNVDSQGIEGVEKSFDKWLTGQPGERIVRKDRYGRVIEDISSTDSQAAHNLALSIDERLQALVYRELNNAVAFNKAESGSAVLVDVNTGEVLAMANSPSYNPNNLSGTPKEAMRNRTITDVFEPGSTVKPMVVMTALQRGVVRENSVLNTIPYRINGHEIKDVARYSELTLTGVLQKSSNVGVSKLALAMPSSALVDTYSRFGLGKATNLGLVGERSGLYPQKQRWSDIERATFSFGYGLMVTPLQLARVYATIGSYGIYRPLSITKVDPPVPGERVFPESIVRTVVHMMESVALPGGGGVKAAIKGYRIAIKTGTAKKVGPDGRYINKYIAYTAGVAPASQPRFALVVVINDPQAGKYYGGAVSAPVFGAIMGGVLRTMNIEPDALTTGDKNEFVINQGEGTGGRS
Method: The thermal shift assay was carried out using the Protein Thermal Shift™ assay kit (Applied Biosystems). 3 μM of purified E. coli PBP3 was incubated with the β-lactam analogues at 300 μM concentration in a mixture containing the Protein Thermal Shift™ Dye. The samples were then heated in a StepOnePlus™ Real-Time PCR System from 25 to 95 °C at a rate of 1 °C min^−1. Tests were carried out in triplicate and the averages plotted as the negative first derivative vs. temperature. Reference wells, i.e. solutions consisting only of only PBP3 with dye, PBP3 only, and dye only, were used as controls. Melting temperature (Tm) values were determined with and without each compound, and the change in melting temperature (ΔTm) was obtained, Fig. 2. The thermal shift assay with PBP4 was carried out using the protocol described for PBP3, with the follow deriviatisation: 500 nM of purified Bacillus subtilis PBP4 was incubated with 50 μM of the β-lactam analogues. A thermal shift assay was used to investigate the binding of the cephalexin analogues to the therapeutic target, PBP, in vitro. This assay provides a fast and inexpensive method of detecting a ligand binding to a protein of interest. Briefly, the protein is gradually heated in the presence of a fluorescent dye that binds non-specifically to the hydrophobic surfaces. […] A change in the melting temperature (Tm) when the protein is heated in the presence of a ligand, indicates a protein–ligand interaction. […] The PBPs can be divided into two main categories: high molecular mass (HMM) and low molecular mass (LMM).[13] PBP3 was chosen as a representative HMM PBP, and PBP4 as a representative LMM PBP. Cephalexin (1) has been previously reported to show good binding affinities for both PBP3 and PBP4.[14] Penicillin (11) and cefpodoxime (12) were included as positive controls. A truncated version of the ftsI gene formed of residues W44-S588, encoding only the soluble domain, was amplified from E. coli BW25113. The resulting construct was inserted into the vector pBADnLIC2005,[40] introducing an N-terminal deca-histidine tag when expressed. The resulting vector was transformed into E. coli MC1061 for expression. Cultures for protein expression were grown in 1 L of Luria–Bertani (LB) broth at 37 °C on an orbital shaker. Expression was induced by addition of 0.01% L-arabinose during mid-log phase of growth. Cultures were further incubated for 16 h at 20 °C, then the cells were harvested by centrifugation. Cell pellets were resuspended in 50 mM KPi pH 7.8, 200 mM NaCl, 10 mM imidazole, 20% glycerol with 1 mM [compound left out] followed by sonication. The lysate was clarified by centrifugation before loading onto a HisTrap HF column (GE Healthcare). To remove any pre-bound ligands, refolding purification was performed by initially washing with the protein unfolding buffer [2 M guanidine HCl, 50 mM KPi (pH 7.8), 200 mM NaCl, 20% glycerol, and 20 mM imidazole] and then performing a gradient wash to the protein refolding buffer [50 mM KPi (pH 7.8), 200 mM NaCl, 20% glycerol, and 20 mM imidazole] before the elution of the protein using the elution buffer [50 mM KPi (pH 7.8), 200 mM NaCl, 20% glycerol, and 500 mM imidazole]. The eluted protein was buffer-exchanged to the buffer 50 mM KPi (pH 7.8), 200 mM NaCl using a HisTrap Desalting (GE Healthcare) column.

[2] = test system: T2, E. coli; set-up: species or system Escherichia coli BW25113; broth growth inhibition, OD600, fitted MIC from dose curve, LB, 37 C; conditions: 16 h; inhibitor
T2 construct: BW25113
Method: Stock solutions of each compound were prepared in 50% DMSO/water at ×100 the final concentration. In a 96-well plate, 2 μL of the test compounds were added to each well. Each plate included the positive control (750 μg mL^−1 chloramphenicol), the negative control (50% DMSO/water) and media only wells. To each test well was then added 198 μL of the required bacteria stock (OD 0.05). E. coli assays were carried out using LB broth, S. aureus were carried out using tryptic soy broth (TSB). Plates were incubated at 37 °C and the OD600 was measured (Epoch 2 Microplate Spectrophotometer, BioTek) every 30 min over a 17 h period. Tests were carried out in triplicate, the background absorbance was removed using reference wells, and the averages were determined. Dose curves were plotting using the OD600 after 16 h growth vs. compound concentration. MICs were defined as the minimum concentration of compound at which no significant growth was observed after 16 h incubation. MIC values were determined using GraphPad Prism (version 8.3.0). […] Further testing was carried out […] to determine whether the tethered compounds had any antibacterial activity. Table 2 summarises the MIC values determined for 1–12, MBC50 data is included in the ESI. ^†

[3] = target: T1, PBP3; test: thermal shift, ligand titration; format: binding; conditions: 2 μM PBP3, 25 min at room temperature before melt 35-70 °C; approximate affinity, not a Kd

Row | equivalents required for >Tm1/2 [3] [equivalents] | Compound | ΔTm at 300 µM [1] [°C] | MIC (E. coli, best-fit) [2] [µM]
1 | – | CC1=C(C(=O)O)N2C(=O)[C@@H](NC(=O)[C@H](NC(=O)CCCCN)c3ccccc3)[C@H]2SC1 [compound 10, (6R,7R)-7-[(2R)-2-(5-Aminopentanamido)-2-phenylacetamido]-3-methyl-8-oxo-5-thia-1-azabicyclo[4.2.0]oct-2-ene-2-carboxylic acid] | 2.81 | –
2 | – | CC1=C(C(=O)O)N2C(=O)[C@@H](NC(=O)[C@H](NC(=O)CCCCCN3C(=O)C=CC3=O)c3ccccc3)[C@H]2SC1 [compound 3, (6R,7R)-7-((R)-2-(6-(2,5-dioxo-2,5-dihyrdo-1H-pyrrol-1-yl)hexanamido)-2-phenylacetamido)-3-methyl-8-oxo-5-thia-1-azabicyclo[4.2.0]oct-2-ene-2-carboxylic acid] | 3 | –
3 | 75 | CC1=C(C(=O)O)N2C(=O)[C@@H](NC(=O)[C@H](N)c3ccccc3)[C@H]2SC1 [compound 1, cephalexin] | 1.61 | 94.91 (≈ 33 µg/mL)
4 | – | CC(=O)N[C@@H](C(=O)N[C@@H]1C(=O)N2C(C(=O)O)=C(C)CS[C@H]12)c1ccccc1 [compound 8, (6R,7R)-7-[(2R)-2-Acetamido-2-phenylacetamido]-3-methyl-8-oxo-5-thia-1-azabicyclo[4.2.0]oct-2-ene-2-carboxylic acid] | 3.01 | –
5 | – | CC1=C(C(=O)O)N2C(=O)[C@@H](NC(=O)[C@H](NC(=O)OC(C)(C)C)c3ccccc3)[C@H]2SC1 [compound 9, (6R,7R)-7-[(2R)-2-{[(Tert-butoxy)carbonyl]amino}-2-phenylacetamido]-3-methyl-8-oxo-5-thia-1-azabicyclo[4.2.0]oct-2-ene-2-carboxylic acid] | 1.61 | –
6 | – | C#CCCC(=O)N[C@@H](C(=O)N[C@@H]1C(=O)N2C(C(=O)O)=C(C)CS[C@H]12)c1ccccc1 [compound 4, (6R,7R)-3-Methyl-8-oxo-7-[(2R)-2-(pent-4-ynamido)-2-phenylacetamido]-5-thia-1-azabicyclo[4.2.0]oct-2-ene-2-carboxylic acid] | 3.01 | –
7 | – | COCC1=C(C(=O)O)N2C(=O)[C@@H](NC(=O)/C(=N\OC)c3csc(N)n3)[C@H]2SC1 [compound 12, cefpodoxime] | 4.42 | 7.744 (≈ 3.31 µg/mL)
8 | – | CC1=C(C(=O)O)N2C(=O)[C@@H](NC(=O)[C@H](NC(=O)CCCC(=O)ON3C(=O)CCC3=O)c3ccccc3)[C@H]2SC1 [compound 6, (6R,7R)-7-[(2R)-2-{5-[(2,5-Dioxopyrrolidin-1-yl)oxy]-5-oxopentanamido}-2-phenylacetamido]-3-methyl-8-oxo-5-thia-1-azabicyclo[4.2.0]oct-2-ene-2-carboxylic acid] | 3.21 | –
9 | – | CC1=C(C(=O)O)N2C(=O)[C@@H](NC(=O)[C@H](NC(=O)CCCC(=O)O)c3ccccc3)[C@H]2SC1 [compound 7, (6R,7R)-7-[(2R)-2-(4-Carboxybutanamido)-2-phenylacetamido]-3-methyl-8-oxo-5-thia-1-azabicyclo[4.2.0]oct-2-ene-2-carboxylic acid] | 3.6 | –
10 | – | CC1=C(C(=O)O)N2C(=O)[C@@H](NC(=O)[C@H](NC(=O)CCCCC3CCSS3)c3ccccc3)[C@H]2SC1 (stereo partly drawn) [compound 5, (6R,7R)-7-[(2R)-2-[5-(1,2-Dithiolan-3-yl)pentanamido]-2-phenylacetamido]-3-methyl-8-oxo-5-thia-1-azabicyclo[4.2.0]oct-2-ene-2-carboxylic acid] | 3.01 | –
11 | – | CC1=C(C(=O)O)N2C(=O)[C@@H](NC(=O)[C@H](NC(=O)COCC(=O)NCCOCCOCCOCCOCCNC(=O)CCCCCN3C(=O)C=CC3=O)c3ccccc3)[C@H]2SC1 [compound 2, (6R,7R)-7-((R)-30-(2,5-Dioxo-2,5-dihydro-1H-pyrrol-1-yl)-4,8,25-trioxo-2-phenyl-6,12,15,18,21-pentaoxa-3,9,24-triazatriacontanamido)-3-methyl-8-oxo-5-thia-1-azabicyclo[4.2.0]oct-2-ene-2-carboxylic acid] | 4.72 | –
